Where two headings read alike, the source gives them in different places.
How the values were obtained:
[1] = target: Human α2δ-1 subunit of Cav2.2 calcium channel (Homo sapiens, UniProt P54289); experiment: biochemical; assay type: binding
[2] = target: Human μ-opioid receptor (Homo sapiens, UniProt P35372); experiment: biochemical; assay type: binding
Chain of Human μ-opioid receptor (P35372 whole entry): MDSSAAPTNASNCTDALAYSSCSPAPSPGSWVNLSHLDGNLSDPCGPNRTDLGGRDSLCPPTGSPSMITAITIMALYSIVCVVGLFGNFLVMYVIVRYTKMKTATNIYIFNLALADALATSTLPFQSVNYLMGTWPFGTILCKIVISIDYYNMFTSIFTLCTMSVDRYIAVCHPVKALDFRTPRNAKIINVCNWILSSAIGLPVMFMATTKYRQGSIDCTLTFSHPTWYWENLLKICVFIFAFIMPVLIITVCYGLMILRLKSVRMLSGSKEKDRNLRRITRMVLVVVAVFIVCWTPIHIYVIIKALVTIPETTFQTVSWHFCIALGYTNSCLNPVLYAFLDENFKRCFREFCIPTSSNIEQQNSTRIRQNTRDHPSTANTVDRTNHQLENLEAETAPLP

Chain of Human α2δ-1 subunit of Cav2.2 calcium channel (P54289 25-1103): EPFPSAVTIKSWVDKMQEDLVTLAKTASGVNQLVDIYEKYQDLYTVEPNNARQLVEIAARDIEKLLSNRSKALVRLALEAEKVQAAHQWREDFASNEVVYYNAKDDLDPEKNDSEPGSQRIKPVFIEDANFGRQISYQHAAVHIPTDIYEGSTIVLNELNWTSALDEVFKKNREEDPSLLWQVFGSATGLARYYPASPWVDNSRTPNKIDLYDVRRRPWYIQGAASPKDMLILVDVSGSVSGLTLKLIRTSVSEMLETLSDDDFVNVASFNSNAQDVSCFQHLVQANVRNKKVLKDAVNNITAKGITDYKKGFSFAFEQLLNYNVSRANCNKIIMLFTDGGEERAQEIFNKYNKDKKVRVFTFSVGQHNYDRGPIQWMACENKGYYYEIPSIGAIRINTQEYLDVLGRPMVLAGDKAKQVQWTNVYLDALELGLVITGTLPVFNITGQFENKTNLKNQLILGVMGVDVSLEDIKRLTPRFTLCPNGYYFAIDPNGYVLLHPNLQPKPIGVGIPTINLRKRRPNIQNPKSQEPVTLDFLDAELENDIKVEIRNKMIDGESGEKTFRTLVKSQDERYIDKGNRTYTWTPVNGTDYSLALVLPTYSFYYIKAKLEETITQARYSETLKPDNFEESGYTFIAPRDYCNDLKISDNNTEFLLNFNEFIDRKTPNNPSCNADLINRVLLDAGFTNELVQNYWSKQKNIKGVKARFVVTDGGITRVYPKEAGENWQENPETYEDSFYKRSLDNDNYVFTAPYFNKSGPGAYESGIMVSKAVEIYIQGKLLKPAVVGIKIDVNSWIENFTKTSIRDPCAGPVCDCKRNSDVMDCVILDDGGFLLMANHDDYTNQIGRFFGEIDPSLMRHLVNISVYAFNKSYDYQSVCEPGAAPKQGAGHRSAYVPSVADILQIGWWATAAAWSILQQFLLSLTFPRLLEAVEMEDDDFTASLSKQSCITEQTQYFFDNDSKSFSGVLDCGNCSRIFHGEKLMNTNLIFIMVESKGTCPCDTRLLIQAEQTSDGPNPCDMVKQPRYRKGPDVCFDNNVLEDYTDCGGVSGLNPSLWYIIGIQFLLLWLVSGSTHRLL

| Ki ([1]; read-out: α2δ-1 binding) | Ki ([2]; read-out: μ-binding) | SMILES | Ki [1] | Ki [2] |
| --- | --- | --- | --- | --- |
| – | – | CCCC(c1nc2cccnc2c(=O)n1CC)N1CCNCC1 (stereo not drawn) [Example 92, 3-ethyl-2-(1-(piperazin-1-yl)butyl)pyrido[3,2-d]pyrimidin-4(3H)-one] | < 500 nM | > 500 nM |
| – | – | CCCC(c1nc2ncc(Br)cc2c(=O)n1CC)N1CCNCC1 (stereo not drawn) [Example 93, 6-bromo-3-ethyl-2-(1-(piperazin-1-yl)butyl)pyrido[2,3-d]pyrimidin-4(3H)-one] | < 500 nM | > 500 nM |
| – | – | CCCC(c1nc2ncccc2c(=O)n1CC)N1CCNCC1 (stereo not drawn) [Example 94, 3-ethyl-2-(1-(piperazin-1-yl)butyl)pyrido[2,3-d]pyrimidin-4(3H)-one] | < 500 nM | > 500 nM |
| – | – | CCC[C@@H](c1nc2c(F)cc(Br)cc2c(=O)n1CC)N1CCNCC1 [Example 95, (S)-6-bromo-3-ethyl-8-fluoro-2-(1-(piperazin-1-yl)butyl)quinazolin-4(3H)-one] | > 5000 nM | > 500 nM |
| – | – | CCC[C@H](c1nc2c(F)cc(Br)cc2c(=O)n1CC)N1CCNCC1 [Example 96, (R)-6-bromo-3-ethyl-8-fluoro-2-(1-(piperazin-1-yl)butyl)quinazolin-4(3H)-one] | < 500 nM | 100 to 500 nM |
| – | – | CCC[C@H](c1nc2ccc(Br)cc2c(=O)n1CC)N1CCN[C@@H](C)C1 [Example 97, 6-Bromo-3-ethyl-2-((R)-1-((S)-3-methylpiperazin-1-yl)butyl)quinazolin-4(3H)-one] | < 500 nM | 100 to 500 nM |
| – | – | CCC[C@H](c1nc2ccc(Br)cc2c(=O)n1CC)N1CCN[C@H](C)C1 [Example 98, 6-bromo-3-ethyl-2-((R)-1-((R)-3-methylpiperazin-1-yl)butyl)quinazolin-4(3H)-one] | < 500 nM | > 500 nM |
| – | – | CCC[C@@H](c1nc2ccc(Br)cc2c(=O)n1CC)N1CCN[C@@H](C)C1 [Example 99, 6-bromo-3-ethyl-2-((S)-1-((S)-3-methylpiperazin-1-yl)butyl)quinazolin-4(3H)-one] | < 500 nM | > 500 nM |
| – | – | CCC[C@@H](c1nc2ccc(Br)cc2c(=O)n1CC)N1CCN[C@H](C)C1 [Example 100, 6-bromo-3-ethyl-2-((S)-1-((R)-3-methylpiperazin-1-yl)butyl)quinazolin-4(3H)-one] | > 5000 nM | > 500 nM |
| – | – | CCC[C@H](c1nc2ccc(Cl)cc2c(=O)n1CC)N1CCN[C@H](C)C1 [Example 101, 6-Chloro-3-ethyl-2-((R)-1-((R)-3-methylpiperazin-1-yl)butyl)quinazolin-4(3H)-one] | < 500 nM | > 500 nM |
| – | – | CCC[C@@H](c1nc2ccc(Cl)cc2c(=O)n1CC)N1CCN[C@H](C)C1 [Example 102, 6-chloro-3-ethyl-2-((S)-1-((R)-3-methylpiperazin-1-yl)butyl)quinazolin-4(3H)-one] | > 5000 nM | > 500 nM |
| – | – | CCC[C@H](c1nc2ccc(Cl)cc2c(=O)n1CC)N1CCN[C@@H](C)C1 [Example 103, 6-Chloro-3-ethyl-2-((R)-1-((S)-3-methylpiperazin-1-yl)butyl)quinazolin-4(3H)-one] | < 500 nM | < 100 nM |
| – | – | CCC[C@@H](c1nc2ccc(Cl)cc2c(=O)n1CC)N1CCN[C@@H](C)C1 [Example 104, 6-chloro-3-ethyl-2-((S)-1-((S)-3-methylpiperazin-1-yl)butyl)quinazolin-4(3H)-one] | > 5000 nM | > 500 nM |
| – | – | CCC[C@@H](c1nc2cc(F)c(Br)cc2c(=O)n1CC)N1CCN[C@@H](C)C1 [Example 105, 6-Bromo-3-ethyl-7-fluoro-2-((S)-1-((S)-3-methylpiperazin-1-yl)butyl)quinazolin-4(3H)-one] | < 500 nM | > 500 nM |
| – | – | CCC[C@H](c1nc2cc(F)c(Br)cc2c(=O)n1CC)N1CCN[C@@H](C)C1 [Example 106, 6-bromo-3-ethyl-7-fluoro-2-((R)-1-((S)-3-methylpiperazin-1-yl)butyl)quinazolin-4(3H)-one] | < 500 nM | < 100 nM |
| > 5000 nM | > 500 nM | CCC[C@@H](c1nc2ccc(Br)cc2c(=O)n1CC)N1CCN[C@@H](CCC(=O)O)C1 [Example 107, 3-((S)-4-((S)-1-(6-Bromo-3-ethyl-4-oxo-3,4-dihydroquinazolin-2-yl)butyl)piperazin-2-yl)propanoic acid] | – | – |

| Ki ([1]; read-out: α2δ-1 binding) | Ki ([2]; read-out: μ-binding) | SMILES | Ki [1] | Ki [2] |
| --- | --- | --- | --- | --- |
| > 5000 nM | > 500 nM | CCC[C@H](c1nc2ccc(Br)cc2c(=O)n1CC)N1CCN[C@@H](CCC(=O)O)C1 [Example 108, 3-((S)-4-((R)-1-(6-bromo-3-ethyl-4-oxo-3,4-dihydroquinazolin-2-yl)butyl)piperazin-2-yl)propanoic acid] | – | – |
| – | – | CCC[C@H](c1nc2ccc(Br)cc2c(=O)n1CC)N1CCN(C)[C@H](C)C1 [Example 109, 6-Bromo-2-((R)-1-((R)-3,4-dimethylpiperazin-1-yl)butyl)-3-ethylquinazolin-4(3H)-one] | < 500 nM | 100 to 500 nM |
| – | – | CCC[C@@H](c1nc2ccc(Br)cc2c(=O)n1CC)N1CCN(C)[C@H](C)C1 [Example 110, 6-bromo-2-((S)-1-((R)-3,4-dimethylpiperazin-1-yl)butyl)-3-ethylquinazolin-4(3H)-one] | > 5000 nM | > 500 nM |
| – | – | CCC[C@@H](c1nc2ccc(Br)cc2c(=O)n1CC)N1CCN(C)[C@@H](C)C1 [Example 111, 6-Bromo-2-((S)-1-((S)-3,4-dimethylpiperazin-1-yl)butyl)-3-ethylquinazolin-4(3H)-one] | > 5000 nM | > 500 nM |
| – | – | CCC[C@H](c1nc2ccc(Br)cc2c(=O)n1CC)N1CCN(C)[C@@H](C)C1 [Example 112, 6-bromo-2-((R)-1-((S)-3,4-dimethylpiperazin-1-yl)butyl)-3-ethylquinazolin-4(3H)-one] | 500 to 5000 nM | < 100 nM |
| – | – | CCCC(c1nc2ccccc2c(=O)n1CCOC)N1C[C@@H](C)N[C@@H](C)C1 (stereo partly drawn) [Example 113, 2-(1-((3S,5R)-3,5-Dimethylpiperazin-1-yl)butyl)-3-(2-methoxyethyl)quinazolin-4(3H)-one] | < 500 nM | > 500 nM |
| > 5000 nM | > 500 nM | COCCn1c(C(CC(C)C)N2C[C@@H](C)N[C@@H](C)C2)nc2ccccc2c1=O (stereo partly drawn) [Example 114, 2-(1-((3S,5R)-3,5-dimethylpiperazin-1-yl)-3-methylbutyl)-3-(2-methoxyethyl)quinazolin-4(3H)-one] | – | – |
| – | – | CCCC(c1nc2ccccc2c(=O)n1Cc1ccco1)N1C[C@@H](C)N[C@@H](C)C1 (stereo partly drawn) [Example 118, 2-(1-((3S,5R)-3,5-dimethylpiperazin-1-yl)butyl)-3-(furan-2-ylmethyl)quinazolin-4(3H)-one] | < 500 nM | > 500 nM |
| – | – | CCCC(c1nc2ccc(C)cc2c(=O)n1CCOC)N1C[C@@H](C)N[C@@H](C)C1 (stereo partly drawn) [Example 119, 2-(1-((3S,5R)-3,5-dimethylpiperazin-1-yl)butyl)-3-(2-methoxyethyl)-6-methylquinazolin-4(3H)-one] | < 500 nM | > 500 nM |
| – | – | CCCC(c1nc2ccc(OC)cc2c(=O)n1CCOC)N1C[C@@H](C)N[C@@H](C)C1 (stereo partly drawn) [Example 120, 2-(1-((3S,5R)-3,5-dimethylpiperazin-1-yl)butyl)-6-methoxy-3-(2-methoxyethyl)quinazolin-4(3H)-one] | < 500 nM | > 500 nM |
| – | – | CCCC(c1nc2cnccc2c(=O)n1CCOC)N1C[C@@H](C)N[C@@H](C)C1 (stereo partly drawn) [Example 121, 2-(1-((3S,5R)-3,5-dimethylpiperazin-1-yl)butyl)-3-(2-methoxyethyl)pyrido[3,4-d]pyrimidin-4(3H)-one] | < 500 nM | > 500 nM |
| 500 to 5000 nM | > 500 nM | CCCC(c1nc2ccc(Br)cc2c(=O)n1CCC(=O)OCC)N1C[C@@H](C)N[C@@H](C)C1 (stereo partly drawn) [Example 122, ethyl 3-(6-bromo-2-(1-((3S,5R)-3,5-dimethylpiperazin-1-yl)butyl)-4-oxoquinazolin-3(4H)-yl)propanoate] | – | – |
| – | – | CCC[C@H](c1nc2ccccc2c(=O)n1CCOC)N1C[C@@H](C)N[C@@H](C)C1 [Example 123, 2-((R)-1-((3S,5R)-3,5-Dimethylpiperazin-1-yl)butyl)-3-(2-methoxyethyl)quinazolin-4(3H)-one] | < 500 nM | > 500 nM |
| – | – | CCC[C@@H](c1nc2ccccc2c(=O)n1CCOC)N1C[C@@H](C)N[C@@H](C)C1 [Example 124, 2-((S)-1-((3S,5R)-3,5-dimethylpiperazin-1-yl)butyl)-3-(2-methoxyethyl)quinazolin-4(3H)-one] | 500 to 5000 nM | > 500 nM |
| – | – | CCCC(c1nc2ccc(Br)cc2c(=O)n1CCC(=O)O)N1C[C@@H](C)N[C@@H](C)C1 (stereo partly drawn) [Example 125, 3-(6-Bromo-2-(1-((3S,5R)-3,5-dimethylpiperazin-1-yl)butyl)-4-oxoquinazolin-3(4H)-yl)propanoic acid] | 500 to 5000 nM | 100 to 500 nM |
| > 5000 nM | > 500 nM | CCCC(c1nc2ccc(Br)cc2c(=O)n1CC(=O)O)N1C[C@@H](C)N[C@@H](C)C1 (stereo partly drawn) [Example 126, 2-(6-bromo-2-(1-((3S,5R)-3,5-dimethylpiperazin-1-yl)butyl)-4-oxoquinazolin-3(4H)-yl)acetic acid] | – | – |

| SMILES | Ki ([1]; read-out: α2δ-1 binding) | Ki ([2]; read-out: μ-binding) | Ki [1] | Ki [2] |
| --- | --- | --- | --- | --- |
| CCCCC(c1nc2ccccc2c(=O)n1CCOC)N1C[C@@H](C)N[C@@H](C)C1 (stereo partly drawn) [Example 115, 2-(1-((3S,5R)-3,5-dimethylpiperazin-1-yl)pentyl)-3-(2-methoxyethyl)quinazolin-4(3H)-one] | – | > 500 nM | 500 to 5000 nM | – |
| COCCn1c(C(CC2CC2)N2C[C@@H](C)N[C@@H](C)C2)nc2ccccc2c1=O (stereo partly drawn) [Example 116, 2-(2-cyclopropyl-1-((3S,5R)-3,5-dimethylpiperazin-1-yl)ethyl)-3-(2-methoxyethyl)quinazolin-4(3H)-one] | – | > 500 nM | 500 to 5000 nM | – |
| CCCC(c1nc2ccccc2c(=O)n1CCOC)N1CCNCC1 (stereo not drawn) [Example 117, 3-(2-methoxyethyl)-2-(1-(piperazin-1-yl)butyl)quinazolin-4(3H)-one] | – | > 500 nM | 500 to 5000 nM | – |
| CCCC(c1nc2ccccc2c(=O)n1CCNC)N1C[C@@H](C)N[C@@H](C)C1 (stereo partly drawn) [Example 127, 2-(1-((3S,5R)-3,5-Dimethylpiperazin-1-yl)butyl)-3-(2-(methylamino)ethyl)quinazolin-4(3H)-one] | – | > 500 nM | 500 to 5000 nM | – |
